According to patent US8716275B2, “Compound for the treatment of hepatitis C” (Bristol-Meyers Squibb Company, priority 2011, dated 2014):

Tests used:
[1] = target: NS5B protein of HCV, genotype 1b (Hepatitis C virus genotype 1b, UniProt Q9WMX2); experiment: biochemical
Method: The cDNA encoding the NS5B protein of HCV, genotype 1b, was cloned into the pET21a expression vector. The protein was expressed with an 18 amino acid C-terminal truncation to enhance the solubility. The E. coli competent cell line BL21(DE3) was used for expression of the protein. Cultures were grown at 37° C. for ˜4 hours until the cultures reached an optical density of 2.0 at 600 nm. The cultures were cooled to 20° C. and induced with 1 mM IPTG. Fresh ampicillin was added to a final concentration of 50 μg/mL and the cells were grown overnight at 20° C.
The lysis buffer consisted of 20 mM Tris-HCl, pH 7.4, 500 mM NaCl, 0.5% triton X-100, 1 mM DTT, 1 mM EDTA, 20% glycerol, 0.5 mg/mL lysozyme, 10 mM MgCl2, 15 ug/mL deoxyribonuclease I, and Complete TM protease inhibitor tablets (Roche). After addition of the lysis buffer, frozen cell pellets were resuspended using a tissue homogenizer. […]
After incubating for at least 15 minutes, plates were read on an Amersham LEADseeker multimodality imaging system.
IC50 values for compounds were determined using ten different [I]. IC50 values were calculated from the inhibition using the four-parameter logistic formula y=A+((B−A)/(1+((C/x)^D))), where A and B denote minimal and maximal % inhibition, respectively, C is the IC50, D is hill slope and x represents compound concentration.

[2] = system: genotype 1b HCV replicon in Huh-7 cells; experiment: HCV Replicon Luciferase Assay; assay type: cell-based; conditions: Hepatitis C virus, Huh-7, 72 h
Method: Cell Lines. The cell lines used to evaluate compounds consist of a human hepatocyte derived cell line (Huh-7) that constitutively expresses a genotype 1b HCV replicon containing a Renilla luciferase reporter gene. These cells were maintained in Dulbecco's modified Eagle medium (DMEM) containing 10% FBS, 100 U/mL penicillin/streptomycin and 1.0 mg/mL G418.
HCV Replicon Luciferase Assay. To evaluate compound efficacy, titrated compounds were transferred to sterile 384-well tissue culture treated plates, and the plates were seeded with HCV replicon cells (50 μL at a density of 2.4×10^3 cells/well) in DMEM containing 4% FBS (final DMSO concentration at 0.5%). After 3 days incubation at 37° C., cells were analyzed for Renilla Luciferase activity using the EnduRen substrate (Promega cat #E6485) according to the manufacturer's directions. Briefly, the EnduRen substrate was diluted in DMEM and then added to the plates to a final concentration of 7.5 μM. The plates were incubated for at least 1 h at 37° C. then read on a Viewlux Imager (PerkinElmer) using a luminescence program. The 50% effective concentration (EC50) was calculated using the four-parameter logistic formula noted above.

hERG potassium channel [3] = target: T1, hERG potassium channel (Homo sapiens, UniProt Q12809); experiment: hERG Flux assay (FLIPR); assay type: cell-based; conditions: HEK293 cells stably-expressing hERG, thallium flux
T1 construct: expressed in transfected cells; host or cells: HEK293
T1 sequence (Q12809 whole entry): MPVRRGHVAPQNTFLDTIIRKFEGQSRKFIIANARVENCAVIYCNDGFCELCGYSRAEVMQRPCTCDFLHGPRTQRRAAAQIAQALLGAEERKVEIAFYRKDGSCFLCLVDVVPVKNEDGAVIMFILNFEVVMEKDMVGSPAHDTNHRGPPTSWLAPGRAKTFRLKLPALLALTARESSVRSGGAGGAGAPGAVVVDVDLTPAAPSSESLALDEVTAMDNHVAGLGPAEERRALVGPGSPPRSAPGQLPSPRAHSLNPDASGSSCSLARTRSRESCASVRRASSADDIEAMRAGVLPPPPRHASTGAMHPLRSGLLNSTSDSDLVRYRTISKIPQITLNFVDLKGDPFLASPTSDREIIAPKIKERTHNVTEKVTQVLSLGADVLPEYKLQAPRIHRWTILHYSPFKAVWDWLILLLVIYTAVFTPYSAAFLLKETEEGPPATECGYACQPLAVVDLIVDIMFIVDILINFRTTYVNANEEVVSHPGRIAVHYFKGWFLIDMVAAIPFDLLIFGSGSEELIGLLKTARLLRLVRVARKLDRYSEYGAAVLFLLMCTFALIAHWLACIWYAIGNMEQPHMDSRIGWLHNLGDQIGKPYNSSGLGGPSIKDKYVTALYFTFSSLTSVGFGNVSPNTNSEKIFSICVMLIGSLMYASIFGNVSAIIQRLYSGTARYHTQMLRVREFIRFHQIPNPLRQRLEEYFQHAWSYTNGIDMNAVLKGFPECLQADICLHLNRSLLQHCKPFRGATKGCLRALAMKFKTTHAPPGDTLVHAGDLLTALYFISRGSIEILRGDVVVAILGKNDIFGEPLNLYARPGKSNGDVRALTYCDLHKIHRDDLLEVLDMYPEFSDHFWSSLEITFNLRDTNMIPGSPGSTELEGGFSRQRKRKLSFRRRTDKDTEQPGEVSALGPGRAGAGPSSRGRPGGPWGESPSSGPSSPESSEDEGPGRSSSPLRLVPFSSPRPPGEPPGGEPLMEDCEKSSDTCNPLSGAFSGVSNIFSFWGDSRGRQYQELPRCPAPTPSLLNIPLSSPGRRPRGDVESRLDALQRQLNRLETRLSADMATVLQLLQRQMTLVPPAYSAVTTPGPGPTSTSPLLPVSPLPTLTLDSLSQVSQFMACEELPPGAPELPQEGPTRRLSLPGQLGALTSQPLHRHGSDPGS
Method: Cells are incubated at 21° C. for 45 minutes.
Data Analysis. […] The raw fluorescence units data files generated on the FLIPR plate reader are automatically exported and processed by in-house data analysis tools.

hERG potassium channel [4] = target: T1, hERG potassium channel; experiment: hERG patch clamp assay; assay type: cell-based; conditions: HEK293 cells stably transfected with hERG cDNA, peak tail currents, read-out: % Inhibition (Mean ± SE)
Text: Cell Line. Human embryonic kidney (HEK293) cells stably transfected with human ether-a-go-go related gene (hERG) cDNA were used in the hERG assay. The biophysical and pharmacological properties of recombinant hERG channels expressed in HEK293 cells and of native IKr channels in human cardiac cells are nearly identical. Several known hERG blockers, including dofetilide, terfenadine, cisapride and E-4031 inhibit recombinant hERG currents in the hERG stable cell line and IKr currents in isolated cardiac myocytes with identical potency.
Patch Clamp. […]
Initially, a current-voltage relationship was generated in the control bath solution using the following voltage protocol. hERG currents were elicited by 2 second step depolarizations applied from a holding potential of −80 mV to test potentials ranging from −70 mV to +60 mV. […] The peak tail current was monitored until a new steady-state in the presence of test article was achieved. This was followed by the application of the next higher concentration of test article to be tested, and was repeated until all concentrations of test article had been evaluated. Effects of test article on hERG channel were calculated by measuring inhibition of peak tail currents. Percent inhibition of tail currents was plotted as a function of test article concentration to quantify hERG channel inhibition. […] All currents were recorded at room temperature 25° C.

NS5B protein of HCV, genotype 1b, sequence (Q9WMX2 2420-2992): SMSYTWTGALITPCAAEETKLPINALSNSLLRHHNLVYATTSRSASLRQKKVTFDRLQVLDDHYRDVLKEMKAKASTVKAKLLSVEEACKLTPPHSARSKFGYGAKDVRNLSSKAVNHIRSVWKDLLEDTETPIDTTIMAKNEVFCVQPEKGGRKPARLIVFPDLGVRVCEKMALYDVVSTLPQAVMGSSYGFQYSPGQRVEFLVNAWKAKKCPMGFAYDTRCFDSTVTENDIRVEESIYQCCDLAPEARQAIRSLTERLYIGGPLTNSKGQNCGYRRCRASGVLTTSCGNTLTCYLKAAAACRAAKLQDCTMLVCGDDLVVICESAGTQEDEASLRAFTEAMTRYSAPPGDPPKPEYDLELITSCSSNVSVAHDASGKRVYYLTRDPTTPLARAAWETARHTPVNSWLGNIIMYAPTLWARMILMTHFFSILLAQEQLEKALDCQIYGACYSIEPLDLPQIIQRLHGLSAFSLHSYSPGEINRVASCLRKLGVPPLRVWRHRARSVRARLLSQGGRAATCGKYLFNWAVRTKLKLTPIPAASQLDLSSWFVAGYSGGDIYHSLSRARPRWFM

CN1CC2CCC(C1)N2C(=O)[C@]12C[C@H]1c1cc(F)ccc1-c1c(C3CCCCC3)c3ccc(C(=O)NS(=O)(=O)C4(C)CC4)cc3n1C2 [Compound I, (1aR,12bS)-8-cyclohexyl-11-fluoro-N-((1-methylcyclopropyl)sulfonyl)-1a-((3-methyl-3,8-diazabicyclo[3.2.1]oct-8-yl)carbonyl)-1,1a,2,12b-tetrahydrocyclopropa[d]indolo[2,1-a][2]benzazepine-5-carboxamide]
IC50 [1]: 5 nM
EC50 [2]: 7 nM
IC50 (hERG potassium channel [3]): 23400 nM
inhibition at 10 μM (hERG potassium channel [4]; pH 7.4, Conc. 10 μM): 30.5 ± 1.9%
inhibition at 30 μM (hERG potassium channel [4]; pH 7.4, Conc. 30 μM): 43.4 ± 2%
